The source of these data is article PMC8624133, “10th Trends in Medical Mycology Held on 8 to 11 October 2021, Aberdeen, Scotland, Organized by the European Confederation of Medical Mycology (ECMM)” (Journal of Fungi, 2021).

As usually defined, the MIC is the lowest concentration that inhibits growth of the organism.

The subject of test [1] is Candida isolates from animals. Nature of the test: CLSI M44-A2 disk diffusion. In kind it is cell-based, Candida spp. The settings on record: 10 µg discs; all 10 isolates. On the procedure:
Methods: Swab samples were plated on Sabouraud dextrose agar (SDA) with the addition of chloramphenicol. M. pachydermatis strains were identified by conventional laboratory methods and their ability to grow on SDA without lipid supplementation. The identification of Candida isolates was based on their phenotypic characterization and molecular methods using the universal ITS-1 and ITS-4 primers for amplification of the internal transcribed spacer 1 (ITS1), ITS2 regions and the 5.8S ribosomal DNA region followed by sequence-based identification. Susceptibility of Candida isolates was determined as described by the CLSI M44-A2 method using MCZ, CTZ and ITZ discs (10 µg, Neo-Sensitabs, Rosco, Denmark). Because the standard procedure for Candida susceptibility testing cannot be applied to M. pachydermatis, recommended modified protocol was used. The results were interpreted according to manufacturer’s guidelines.

A further test relates to CDR1. The test is described as follows: Rhodamine 6G (R6G) efflux.
In another test the test system is C. albicans. Nature of the test: Neutrophil control of hyphal growth (swarming). In kind it is cell-based, Candida albicans. The note with it: neutrophils of SOT and SCT recipients, ex vivo. How it is done:
Methods and Materials: Twenty-one SOT, 19 SCT and 23 healthy control patients (HC) were identified and consented at primary care/outpatient transplant clinics. Transplant recipients were enrolled at a time period two to four months post-transplant. Following consent and peripheral blood collection, neutrophils were freshly isolated and co-incubated with C. albicans and the percent remaining live yeast was measured using a viability dye compared to a standard control to determine fungal elimination by neutrophils. Growth inhibition of C. albicans was also quantified by neutrophil swarming to yeast spotted onto glass slides, assessed by live cell imaging with or without G-CSF. Effect of soluble factors on neutrophils function was determined by incubation of healthy neutrophils with SOT and SCT serum and measuring ability to control C. albicans.

The subject of test [2] is invasive fungal diseases (IFDs). The note with it: 41 patients; ref published case reports, PubMed and Embase, 1990–2020; cited from earlier work. The text has this:
Among the 41 patients with IFDs, were those with invasive candidiasis and invasive mould diseases, including those caused by Aspergillus spp., Mucorales, and Fusarium spp. Sixteen (39%) had baseline neutropenia and 27 (66%) were considered to be refractory to standard therapy prior to GM-CSF administration. Among the 41 patients with IFDs, complete responses were reported in 35 (85%) patients and partial response in 1 patient, with 5 patients having no or unclear response. || Previously published case reports on the use of GM-CSF for adjunctive treatment of IFDs are summarized in Table 2. […]

Test [3] deals with Candida albicans. The test is described as follows: CLSI M27-A3/M27-S4 MIC and MFC. In kind it is cell-based. On the procedure: (§1) Methods & Materials: To evaluate the antifungal effect of each combination of nystatin and morencidine-like peptide, the protocol presented in CLSI M27-A3 and CLSI M27-S4 was used and the minimum inhibitory concentration was determined.
The next test deals with Candida glabrata. The test is described as follows: CLSI M27-A3/M27-S4 MIC and MFC. In kind it is cell-based. How it is done:
as §1

In another test the test system is Candida tropicalis. The test is described as follows: CLSI M27-A3/M27-S4 MIC and MFC. In kind it is cell-based. On the procedure: as §1
The test system of a further test is A. fumigatus conidia. Nature of the test: Conidia killing by epithelial cells with sulfide donor. In kind it is cell-based, Aspergillus fumigatus. From the text: Materials & Methods: We deleted A. fumigatus genes to identify the enzymes primarily responsible for persulfidation as confirmed by fluorescence proteomic and microscopic analyses. We then used enzymatic assays, killing experiments and murine models to characterize the relevance of persulfidation for A. fumigatus virulence. We performed a genetic association study of the frequencies of a Single Nucleotide Polymorphism (SNP) in the human gene with the probability of suffering Invasive pulmonary aspergillosis (IPA) in hematopoietic stem cell transplant (HSCT) recipients. Next, we investigated the antifungal capacities of host cells using our engineered A549 cell line and alveolar macrophages and neutrophils derived from knock-out mice. Subsequenlty we investigated the interdependency of fungal and human persulfidation levels using Western-blot and fluorescence microscopy. Finally, we performed killing assays in the presence of a sulfide donor to potentiate host persulfidation.

In another test the test system is A. flavus. Nature of the test: EUCAST and CLSI susceptibility, multicenter. In kind it is cell-based. The note with it: Aspergillus flavus. How it is done:
(§2) Methods: We performed a multicenter study to determine the antifugal susceptibility to AmB from AmBisome (provided by Gilead) using both CLSI and EUCAST protocols. We tested this activity against the most relevant clinical fungal species.Representative isolates from different geographical regions were included in the study. Other antifungals were evaluated (fluconazole, itraconazole, voriconazole, posaconazole, caspofungin, micafungin and anidulafungin).

Another test concerns A. nidulans. The test is described as follows: EUCAST and CLSI susceptibility, multicenter. In kind it is cell-based. The settings on record: Aspergillus nidulans. On the procedure:
as §2

For a further test, the system named is A. niger. The test is described as follows: EUCAST and CLSI susceptibility, multicenter. In kind it is cell-based. The note with it: Aspergillus niger. How it is done:
as §2

In the next test the test system is A. terreus. Nature of the test: EUCAST and CLSI susceptibility, multicenter. In kind it is cell-based. The settings on record: Aspergillus terreus. On the procedure: as §2
The test system of a further test is Aspergillus fumigatus. The test is described as follows: EUCAST and CLSI susceptibility, multicenter. In kind it is cell-based. On the procedure:
as §2

The test system of a further test is C. tropicalis. Nature of the test: EUCAST and CLSI susceptibility, multicenter. In kind it is cell-based. The note with it: Candida tropicalis, seven laboratories. On the procedure: as §2
The subject of test [4] is Candida albicans. The test is described as follows: EUCAST and CLSI susceptibility, multicenter. The settings on record: seven laboratories. In kind it is cell-based. How it is done: as §2
In test [5] the test system is Lomentospora prolificans and Cunninghamella bertholletiae. The test is described as follows: EUCAST and CLSI susceptibility, multicenter. In kind it is cell-based. How it is done:
as §2

The test system of test [6] is other filamentous fungi, including Talaromyces marneffei. Nature of the test: EUCAST and CLSI susceptibility, multicenter. The settings on record: around, read-out: GM MIC, both methods. In kind it is cell-based. How it is done:
as §2

The subject of another test is C. parapsilosis. Nature of the test: EUCAST and CLSI susceptibility, multicenter. In kind it is cell-based, Candida parapsilosis. The settings on record: Lodderomyces parapsilosis, seven laboratories. On the procedure:
as §2

The test system of another test is C. glabrata. Nature of the test: EUCAST and CLSI susceptibility, multicenter. In kind it is cell-based, Candida glabrata. The note with it: Nakaseomyces glabratus, seven laboratories. How it is done: as §2
Another test concerns C. auris. The test is described as follows: EUCAST and CLSI susceptibility, multicenter. In kind it is cell-based, Candida auris. The note with it: Candidozyma auris, seven laboratories. How it is done: as §2
The test system of test [7] is dermatophyte standard strains and clinical isolates. Nature of the test: Broth microdilution MIC. In kind it is cell-based, Trichophyton and Microsporum spp. The settings on record: all tested strains. On the procedure: (§3) Materials & Methods: The minimum inhibitory concentration (MIC) of honokiol was assessed by broth microdilution method against standard strains (Trichophyton rubrum ATCC 28188, Trichophyton mentagrophytes ATCC 9533), and clinical isolates (T. rubrum, T. ajelloi, Microsporum canis and M. gypseum). Evaluation of honokiol effect on ergosterol biosynthesis was assessed by high performance liquid chromatography. Checkerboard microtiter method was used to identify synergistic combinations of honokiol with terbinafine against Trichophyton rubrum ATCC 28188. The combinatorial effect was evaluated by calculating the fractional inhibitory concentration index (FICI).

In the next test the test system is T. rubrum. The test is described as follows: Ergosterol content by HPLC. In kind it is cell-based, Trichophyton rubrum. The note with it: control 13.56 ± 0.35 mg%. How it is done: as §3
The subject of test [8] is Trichophyton rubrum ATCC 28188. Nature of the test: Checkerboard microtiter method with terbinafine. In kind it is cell-based. The settings on record: honokiol + terbinafine, additive interactions. On the procedure: as §3
For test [9], the system named is Scedosporium and Lomentospora species. The test is described as follows: Antifungal susceptibility tests. In kind it is cell-based. How it is done:
(§4) Materials & Methods: Antifungal susceptibility tests and biofilm assay were performed to evaluate the activity of miltefosine against Scedosporium and Lomentospora species. Electron microscopy and fluorescent dyes, such as 2′,7′ –dichlorofluorescein diacetate and JC-1, were used to check the effects on cell integrity, oxidative stress and mitochondrial membrane potential, respectively. Miltefosine effects on fungal membrane were evaluated by fillipin staining, the susceptibility to membrane and cell wall stressors and the analysis of cell membrane permeability. Sinergystic assay was performed to check miltefosine interaction with current antifungal agents used in clinical settings.

The test system is the same in test [10]. Nature of the test: Biofilm assay. In kind it is cell-based. How it is done:
as §4

Converted amounts (≈) assume the structure as drawn. Read-outs that look alike come from different tables or passages of the source.

As to `Clc1ccccc1C(c1ccccc1)(c1ccccc1)n1ccnc1` [CTZ, clotrimazole], in [1], the susceptibility category entry is given as “susceptible”.

With Milbemycin oxim A3, the R6G efflux phenotype result in the test with CDR1 is given as “mimicked efflux phenotypes of cdr1∆ mutants”.

With “Granulocyte-macrophage colony stimulating factor [GM-CSF]”, the “neutrophil ability to control hyphal growth” value in the test on C. albicans is on record as “partially restored”. The “complete responses, n (%)” value in test [2] is 35 (85%).

In the case of `C[C@@H]1[C@H](O)[C@@H](C)/C=C/C=C/CC/C=C/C=C/C=C/C=C/C(O[C@H]2O[C@H](C)[C@@H](O)[C@H](N)[C@@H]2O)CC2O[C@](O)(CC(O)C(O)CCC(O)CC(O)CC(O)CC(=O)O[C@H]1C)CC(O)C2C(=O)O` (some centres unmarked) [nystatin], the “MIC (maximum inhibitory effect)” value in the test with Candida albicans [3] is reported as 1.25 µg/mL; in the test with Candida glabrata it was 1.25 µg/mL; in the test with Candida tropicalis, 0.625 µg/mL.

As to `C1COCCN1.COc1ccc(P(=S)(S)N2CCOCC2)cc1` (centres unmarked) [GY4137], the “conidia killing capacity of epithelial cells” value in the test with A. fumigatus conidia was “enhanced”.

Turning to `C[C@@H]1[C@H](O)[C@@H](C)/C=C/C=C/C=C/C=C/C=C/C=C/C=C/[C@H](O[C@@H]2O[C@H](C)[C@@H](O)[C@H](N)[C@@H]2O)C[C@@H]2O[C@](O)(C[C@@H](O)C[C@@H](O)[C@H](O)CC[C@@H](O)C[C@@H](O)CC(=O)O[C@H]1C)C[C@H](O)[C@H]2C(=O)O` [AmB from AmBisome, Amphotericin B], the minimal inhibitory concentration (MIC) with A. flavus (read-out: GM MIC, CLSI) turned out to be 1.1 µg/mL (≈ 1.19 µM); in the test with A. flavus (read-out: GM MIC, EUCAST), 1.7 µg/mL (≈ 1.84 µM); in the test with A. nidulans (read-out: GM MIC, CLSI), 0.9 µg/mL (≈ 0.974 µM); in the test on A. nidulans (read-out: GM MIC, EUCAST) it was 1.7 µg/mL (≈ 1.84 µM); in the test on A. niger (read-out: GM MIC, CLSI), 0.36 µg/mL (≈ 0.39 µM); in the test on A. niger (read-out: GM MIC, EUCAST), 0.22 µg/mL (≈ 0.238 µM). Besides, the minimum inhibitory concentration (MIC) in the test on A. terreus (read-out: GM MIC, CLSI) amounted to 1.4 µg/mL (≈ 1.52 µM); in the test with A. terreus (read-out: GM MIC, EUCAST), 2 µg/mL (≈ 2.16 µM); in the test with Aspergillus fumigatus (read-out: GM MIC, CLSI), 0.64 µg/mL (≈ 0.693 µM); with Aspergillus fumigatus (read-out: GM MIC, EUCAST), 0.65 µg/mL (≈ 0.703 µM); with C. tropicalis (read-out: GM MIC, CLSI), 0.31 µg/mL (≈ 0.335 µM); in the test with C. tropicalis (read-out: GM MIC, EUCAST), 0.36 µg/mL (≈ 0.39 µM). The MIC in the test with Candida albicans [4] (read-out: GM MIC, CLSI) is 0.21 µg/mL (≈ 0.227 µM); in the test with Candida albicans [4] (read-out: GM MIC, EUCAST), 0.23 µg/mL (≈ 0.249 µM); in test [6] it was 0.2 to 0.5 µg/mL (≈ 0.216 to 0.541 µM); in the test on C. parapsilosis (read-out: GM MIC, CLSI), 0.38 µg/mL (≈ 0.411 µM); in the test with C. parapsilosis (read-out: GM MIC, EUCAST), 0.36 µg/mL (≈ 0.39 µM); in the test on C. glabrata (read-out: GM MIC, CLSI), 0.33 µg/mL (≈ 0.357 µM). The MIC in the test on C. glabrata (read-out: GM MIC, EUCAST) was found to be 0.34 µg/mL (≈ 0.368 µM); with C. auris (read-out: GM MIC, CLSI), 0.31 µg/mL (≈ 0.335 µM); in the test on C. auris (read-out: GM MIC, EUCAST), 0.46 µg/mL (≈ 0.498 µM). Also, the “activity, in words” value in [5] is “lowest activity”.

On to `C=CCc1ccc(O)c(-c2ccc(O)c(CC=C)c2)c1` [honokiol, Honokiol], for which the MIC in test [7] is 8 to 16 µg/mL. Further, the ergosterol content in the test on T. rubrum came out at 9.52 ± 0.43 mg%. The FICI in [8] is on record as 0.53–0.75.

Molecule `CCCCCCCCCCCCCCCCOP(=O)([O-])OCC[N+](C)(C)C` [Miltefosine, miltefosine] came in with an inhibitory concentration in test [9] of 2 to 4 µg/mL. For the same molecule, in test [10], the biofilm formation entry is reported as “reduced biofilm formation”.
